In PubChem BioAssay AID608 (Sanford-Burnham Center for Chemical Genomics, 2007):
Activity calls are given as the source filed them. The rule behind the calls is not given here.

Molecular target: Peptidyl-prolyl cis-trans isomerase FKBP1A (Homo sapiens) (UniProt P62942)
Assay: FKBP12 binders, biophysical, NMR detection (AID 608)
Settings: NMR binding, purified FKBP12

Chain of Peptidyl-prolyl cis-trans isomerase FKBP1A (Homo sapiens) (P62942 whole entry, looked up): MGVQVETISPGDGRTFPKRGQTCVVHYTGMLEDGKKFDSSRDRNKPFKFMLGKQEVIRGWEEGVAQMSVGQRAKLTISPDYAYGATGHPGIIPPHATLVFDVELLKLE

Row | SMILES | Kd
1 | c1ccc(Cn2cccc2)nc1 | > 4 mM (inactive)
2 | Cc1cc(NC(=O)c2ocnc2C)no1 | > 4 mM (inactive)
3 | COc1cc(OC)c2c(=O)c(OC)c(-c3ccc(OC)c(OC)c3)oc2c1 | > 4 mM (inactive)
4 | CC(C)NC(=O)c1cc(-n2cnnc2)ccc1Cl | > 4 mM (inactive)
5 | Oc1cc(O)c2c(c1)O[C@H](c1ccc(O)c(O)c1)[C@@H](O)C2 | > 4 mM (inactive)
6 | O=C(NCC1CCNCC1)c1ccncc1 | > 4 mM (inactive)
7 | Nc1cccc(S(=O)(=O)N2CCCC2)c1 | > 4 mM (inactive)
8 | COCC(=O)/C=C1\Sc2ccccc2N1C | > 4 mM (inactive)
9 | C/C=C(\C)C(=O)O[C@H]1C[C@@H](OC(C)=O)[C@@]2(C(=O)OC)CO[C@@H]3C2[C@]12CO[C@](O)(C(=O)OC)[C@H]2[C@](C)(C12O[C@@]1(C)[C@H]1C[C@@H]2OC2OC=C[C@@]21O)[C@@H]3O (stereo partly drawn) | > 4 mM (inactive)
10 | [O-][n+]1cc(O)c(CN2CCOCC2)c2ccccc21 | > 4 mM (inactive)
11 | O=C(O)c1cc(O)c(O)c(O)c1 | > 4 mM (inactive)
12 | Nc1nc(SCc2ccc3c(c2)OCO3)n[nH]1 | > 4 mM (inactive)
13 | Cc1nc(-c2ccc(C(=O)N3CCOCC3)cc2)cs1 | > 4 mM (inactive)
14 | COc1ccc(CN2CCOCC2)c(C)c1C | > 4 mM (inactive)
15 | CC(=O)NC(=S)Nc1nc2ccccc2n1C(C)=O | > 4 mM (inactive)
16 | c1ccc(-n2nnnc2Oc2cccc3cccnc23)cc1 | > 4 mM (inactive)
17 | COC(=O)c1c(OC)cc2c(c1C)Oc1c(Cl)c(OC(C)=O)c(Cl)c(C)c1C(=O)O2 | > 4 mM (inactive)
18 | S=C(c1cccnc1)N1CCOCC1 | > 4 mM (inactive)
19 | Nc1ccc2c(c1)C(=O)OC2 | > 4 mM (inactive)
20 | CCOC12NC(=O)CC(=O)N1C(c1ccccc1)=CS2 (stereo not drawn) | > 4 mM (inactive)
21 | NS(=O)(=O)c1ccc(N=C2NC(=O)CS2)cc1 | > 4 mM (inactive)
22 | CCN(CC)C(=O)c1n[nH]c(=O)c2ccccc12 | > 4 mM (inactive)
23 | CC1=NCCc2c1[nH]c1cc(O)ccc21 | > 4 mM (inactive)

Row | SMILES | Kd
24 | O=c1oc(-c2ccccc2)nc2c1cnn2-c1ccccc1 | > 4 mM (inactive)
25 | Cc1ccc2[nH]cc(CCN)c2c1 | > 4 mM (inactive)
26 | O=C(Nc1cccc(Cl)c1)c1ccncc1 | > 4 mM (inactive)
27 | CC1(C)CN=C(Nc2nc3ccccc3s2)S1 | > 4 mM (inactive)
28 | Cn1c(=O)c2ccccc2n(Cc2ccccc2F)c1=O | > 4 mM (inactive)
29 | O=C1CC(=O)N(c2ccccc2)c2ccccc21 | > 4 mM (inactive)
30 | COc1cc([C@@H]2c3cc4c(cc3[C@H](O)[C@H]3COC(=O)[C@H]23)OCO4)cc(OC)c1OC | > 4 mM (inactive)
31 | Cc1ccc(NC(=O)C2CCCNC2=O)nc1 (stereo not drawn) | > 4 mM (inactive)
32 | Cc1oc(S(=O)(=O)N2CCCCC2)cc1C(=O)O | > 4 mM (inactive)
33 | CCCCCCCCCCCCCc1ccco1 | > 4 mM (inactive)
34 | O=C(O)C1CCCCN1Cc1ccccc1 (stereo not drawn) | > 4 mM (inactive)
35 | Cc1cccc(OCc2nnc(N)s2)c1 | > 4 mM (inactive)
36 | COc1ccccc1NC(=O)C1CCCCC1 | > 4 mM (inactive)
37 | CC1=NN(c2ccc(C)cc2)C(=O)C1 | > 4 mM (inactive)
38 | O=S(=O)(Cc1ccccc1)N1CCCCCC1 | > 4 mM (inactive)
39 | Nc1ncnc2c1ncn2CCN1CCCCC1 | > 4 mM (inactive)
40 | O=S(=O)(NCc1ccco1)N1CCOCC1 | > 4 mM (inactive)
41 | C[C@@H]1O[C@@H](O[C@H]2CC[C@]3(C=O)C4CC[C@]5(C)[C@@H](C6=CC(=O)OC6)CC[C@]5(O)C4CC[C@]3(O)C2)[C@H](O)[C@H](O)[C@H]1O (stereo partly drawn) | > 4 mM (inactive)
42 | O=C(Nn1cnnc1)c1ccccc1-c1ccccc1 | > 4 mM (inactive)
43 | Cc1ccc(O)c(NC(=O)c2ccco2)c1 | > 4 mM (inactive)
44 | NCc1ccc2c(c1)OCO2 | > 4 mM (inactive)
45 | OCc1csc(-c2cccs2)n1 | > 4 mM (inactive)
46 | CC(C)NC(=O)c1cc(=O)n(C)c(=O)n1C | > 4 mM (inactive)

Row | SMILES | Kd
47 | CCOC(=O)C1C(C=C(C)C)C1(C)C (stereo not drawn) | > 4 mM (inactive)
48 | CC(C)c1ccc(NC(=O)C(N)=O)cc1 | > 4 mM (inactive)
49 | O=C(O)CCN1CCc2ccccc2C1c1ccncc1 (stereo not drawn) | > 4 mM (inactive)
50 | Nc1ccccc1N=C1CNC(=O)C1 | > 4 mM (inactive)
51 | S=C(NCc1ccco1)NN1CCOCC1 | > 4 mM (inactive)
52 | Oc1ccccc1C(=S)N1CCCCCC1 | > 4 mM (inactive)
53 | O=C(CSc1nnc2ccccn12)N1CCOCC1 | 0.221 mM
54 | Cc1nnc(SCC(=O)NC2CCCC2)[nH]c1=O | > 4 mM (inactive)
55 | C(=N\c1nccs1)/c1cccnc1 | > 4 mM (inactive)
56 | O=C(c1ccccc1)c1ccc(N2CCNCC2)cc1 | > 4 mM (inactive)
57 | CC1(C)Cc2c(c(-c3ccco3)[nH]c(=O)c2C#N)CO1 | > 4 mM (inactive)
58 | NC(=O)CSc1ccccn1 | > 4 mM (inactive)
59 | CCC(=O)Nc1ccc(-c2nn3c(C)nnc3s2)cc1 | > 4 mM (inactive)
60 | O=C(O)c1cc2ccccc2o1 | > 4 mM (inactive)
61 | O=C(c1ccc(F)cc1)N1CCOCC1 | > 4 mM (inactive)
62 | CN1CCC2(CC1)CC1CC3C=CC1(CN2)O3 (stereo not drawn) | > 4 mM (inactive)
63 | C/C1=C\CCC(=O)C2CC(C)(C)C2CC1 (stereo not drawn) | > 4 mM (inactive)
64 | c1ccc(-n2nnnc2-n2cnc3ccccc32)cc1 | > 4 mM (inactive)
65 | Cc1cc(C(F)(F)F)n2nc(C(=O)O)c(Cl)c2n1 | > 4 mM (inactive)
66 | Cn1c(C(=O)O)ccc1S(N)(=O)=O | > 4 mM (inactive)
67 | Cc1nn(-c2ccccc2)nc1C(=O)O | > 4 mM (inactive)
68 | NC(=O)c1ccsc1NC(=O)c1ccco1 | > 4 mM (inactive)
69 | O=C(c1ccco1)N1CCn2c1nc1ccccc12 | > 4 mM (inactive)

Row | SMILES | Kd
70 | CC(=O)OC(C)(C)[C@@H]1Cc2cc3ccc(=O)oc3cc2O1 | > 4 mM (inactive)
71 | O=C(Nc1ccon1)c1ccccc1Cl | > 4 mM (inactive)
72 | O=C(Nc1ccc(Cl)cc1)N1CCCC1 | inactive
73 | COc1cc2c(cc1OC)[C@@]13CCN4CC5=CCOC6CC(=O)N2C1[C@H]6[C@H]5C[C@H]43 (stereo partly drawn) | > 4 mM (inactive)
74 | OCc1ccc(CN2CCOCC2)cc1 | > 4 mM (inactive)
75 | O=[N+]([O-])c1ccc(/C=N/c2ncn[nH]2)cc1 | > 4 mM (inactive)
76 | O=C(Nc1cccc(Cl)c1)c1cnn2cccnc12 | > 4 mM (inactive)
77 | Nc1c2c3c(sc2nc(=O)n1N)CCCC3 | > 4 mM (inactive)
78 | OCC(O)Cc1ccc2c(c1)OCO2 (stereo not drawn) | > 4 mM (inactive)
79 | CN(C)S(=O)(=O)NCc1ccc2c(c1)OCO2 | > 4 mM (inactive)
80 | CC(C)C(C)/C=C/C(C)C1CCC2C3=CC=C4CC(O)CCC4(C)C3CCC21C (stereo not drawn) | > 4 mM (inactive)
81 | CN1C(=O)c2ccc(N3CCCC3)cc2C1=O | > 4 mM (inactive)
82 | CN1C(=O)/C(=C/c2ccccc2O)NC1=S | > 4 mM (inactive)
83 | Nn1c(CN2CCCCC2)nc2ccccc2c1=O | > 4 mM (inactive)
84 | Cc1ccc(C)n1NC(=O)c1ccco1 | > 4 mM (inactive)
85 | COc1c2ccoc2nc2c(OC)c(OCC(O)C(C)(C)O)ccc12 (stereo not drawn) | > 4 mM (inactive)
86 | Cn1c(=O)c2c(ncn2CCN)n(C)c1=O | > 4 mM (inactive)
87 | CN(c1ccccc1C(=O)N1CCOCC1)S(C)(=O)=O | > 4 mM (inactive)
88 | O=C(Nc1cccnc1)N1CCOCC1 | > 4 mM (inactive)
89 | COC(=O)c1ccc(NC(=O)CC2NCCNC2=O)cc1 (stereo not drawn) | > 4 mM (inactive)
90 | CC(=O)Oc1cc2c(C(C)=O)coc2c2ccccc12 | > 4 mM (inactive)
91 | C=CCNC(=O)c1ccc(Cl)cc1Cl | > 4 mM (inactive)
92 | Cc1ccc(-c2nnn(CC(=O)O)n2)cc1 | > 4 mM (inactive)

Row | SMILES | Kd
93 | O=C(O)c1ncoc1-c1ccccc1 | > 4 mM (inactive)
94 | COc1ccc2c(c1)O[C@@H]1COc3cc(OC)c(OC)cc3[C@@H]1C2=O | > 4 mM (inactive)
95 | Nc1nc2n(c1C(=O)c1ccccc1)CCC2 | > 4 mM (inactive)
96 | Cc1ccc(-c2c(C)n([O-])c3c([n+]2=O)CCCC3)o1 | > 4 mM (inactive)
97 | Cc1cccc(NC(=O)CN2C(=O)CNC2=O)c1 | > 4 mM (inactive)
98 | CC(=O)O[C@H]1C[C@@H](OC(C)=O)C(C)(C)C2C[C@@H](O)[C@]3(C)C(CC[C@@]4(C)[C@H](c5ccoc5)OC(=O)[C@H]5O[C@]543)[C@]21C (stereo partly drawn) | > 4 mM (inactive)
99 | CC1=C(/C=C/C(C)=C/C=C/C(C)=C/C=C/C=C(C)/C=C/C=C(C)/C=C/C(=O)[C@]2(C)C[C@@H](O)CC2(C)C)C(C)(C)C[C@H](O)C1 | > 4 mM (inactive)
100 | COc1cc2c(c(OC)c1OC)-c1ccc(OC)c(=O)cc1[C@@H](NC(C)=O)CC2 | > 4 mM (inactive)
101 | O=S1(=O)C=C(Nc2ccccc2)CC1 | 0.135 mM
102 | Cc1ccccc1CSc1nnc(C)n1N | > 4 mM (inactive)
103 | CCOC(=O)CSCC(=O)Nc1nccs1 | > 4 mM (inactive)
104 | Cc1nc(-c2ccccc2)sc1CO | > 4 mM (inactive)
105 | Nc1nc(=S)n2c(n1)oc1ccccc12 | > 4 mM (inactive)
106 | CN1C2CCC1CC(OC(=O)C(CO)c1ccccc1)C2 (stereo not drawn) | > 4 mM (inactive)
107 | O=C(O)c1ccc(-c2ccccn2)s1 | > 4 mM (inactive)
108 | Cc1nc2nc(Cc3ccccc3)[nH]n2c(=O)c1Cl | > 4 mM (inactive)
109 | C[C@@H]1CC[C@@]2(OC1)OC1C(O)C3C4CC[C@H]5C[C@H](O[C@@H]6O[C@H](CO)[C@H](O[C@@H]7O[C@H](CO)[C@@H](O)[C@H](O[C@@H]8OC[C@@H](O)[C@H](O)[C@H]8O)[C@H]7O[C@@H]7O[C@H](CO)[C@H](O)[C@H](O[C@@H]8O[C@H](CO)[C@@H](O)[C@H](O)[C@H]8O)[C@H]7O)[C@H](O)[C@H]6O)[C@H](O)C[C@]5(C)C4CC[C@]3(C)C1[C@@H]2C (stereo partly drawn) | > 4 mM (inactive)
110 | CC1C[C@H]2CC(=O)[C@H]3CCCN4CCC[C@H]2[C@]34C1 (stereo partly drawn) | > 4 mM (inactive)
111 | CC(=O)NC1C(=O)Nc2c(C)cc(C)cc21 (stereo not drawn) | > 4 mM (inactive)
112 | Cc1cccc(NC(=O)NC(N)=O)c1 | > 4 mM (inactive)
113 | O=c1c(-c2ccccc2)coc2cc(O)cc(O)c12 | > 4 mM (inactive)
